How the values were obtained:
MAP4K1 (HPK1) = MAP4K1 (HPK1) (Homo sapiens, UniProt Q92918); test: MAP4K1 (HPK1) kinase activity inhibition, Caliper mobility shift assay; type: biochemical; settings: kinase 1.25 nM, ATP 10.1 μM
Method in brief: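 HPK1 kinase at 1.25 nM final preincubated 10 min at room temperature with compound (5 points, 5-fold dilutions from 500 nM), then reacted 120 min with 10.1 μM ATP and 3 μM substrate peptide No. 25. EDTA stop; mobility-shift conversion read, IC50 from variable-slope four-parameter fit of % inhibition.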

EGFR (T790M/L858R/C797S) = EGFR (T790M/L858R/C797S) (Homo sapiens, UniProt P00533, C797S/L858R/T790M); test: EGFR (T790M/L858R/C797S) kinase activity inhibition, Caliper mobility shift assay; type: biochemical; settings: kinase 2.5 nM, ATP 40 μM
Sequence of EGFR (T790M/L858R/C797S) (P00533 25-1210 T790M/C797S/L858R): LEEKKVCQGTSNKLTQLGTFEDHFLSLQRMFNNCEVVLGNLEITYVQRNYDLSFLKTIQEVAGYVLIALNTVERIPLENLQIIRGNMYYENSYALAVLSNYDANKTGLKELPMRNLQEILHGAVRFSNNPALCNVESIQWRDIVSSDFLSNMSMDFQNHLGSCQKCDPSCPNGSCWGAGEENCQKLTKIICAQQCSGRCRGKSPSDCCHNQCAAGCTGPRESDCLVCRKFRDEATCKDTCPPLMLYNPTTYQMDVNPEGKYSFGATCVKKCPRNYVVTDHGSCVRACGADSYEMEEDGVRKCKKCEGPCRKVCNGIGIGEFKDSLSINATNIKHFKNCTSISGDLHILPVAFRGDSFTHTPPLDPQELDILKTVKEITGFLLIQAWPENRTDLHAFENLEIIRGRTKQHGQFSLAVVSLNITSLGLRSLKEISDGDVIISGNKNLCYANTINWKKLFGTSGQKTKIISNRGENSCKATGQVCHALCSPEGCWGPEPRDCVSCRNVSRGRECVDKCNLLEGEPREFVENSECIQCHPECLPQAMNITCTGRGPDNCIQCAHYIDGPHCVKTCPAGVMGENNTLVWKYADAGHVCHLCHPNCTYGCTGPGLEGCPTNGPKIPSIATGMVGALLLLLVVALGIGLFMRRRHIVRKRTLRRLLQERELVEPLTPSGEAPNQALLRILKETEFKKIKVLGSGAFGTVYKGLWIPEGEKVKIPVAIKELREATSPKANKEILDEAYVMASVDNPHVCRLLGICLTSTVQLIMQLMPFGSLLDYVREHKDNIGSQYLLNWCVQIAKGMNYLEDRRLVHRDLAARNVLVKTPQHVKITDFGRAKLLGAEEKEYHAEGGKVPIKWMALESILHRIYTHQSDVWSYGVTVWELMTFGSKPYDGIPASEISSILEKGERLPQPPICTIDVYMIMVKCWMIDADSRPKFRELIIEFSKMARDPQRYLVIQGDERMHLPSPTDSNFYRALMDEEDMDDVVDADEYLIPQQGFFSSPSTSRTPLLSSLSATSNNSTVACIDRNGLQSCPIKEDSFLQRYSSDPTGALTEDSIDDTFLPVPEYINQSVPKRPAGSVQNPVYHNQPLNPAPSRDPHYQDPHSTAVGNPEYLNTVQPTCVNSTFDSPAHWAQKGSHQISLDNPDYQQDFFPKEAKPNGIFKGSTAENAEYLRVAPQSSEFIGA
Description: The basic method is the same as ALK activity test method 2. The test concentration of the compound starts at 2 μM, and is diluted 5 folds into 6 (7 for individual compounds) concentration points. […] Add 30 μL of stop solution containing EDTA to stop the kinase reaction. Use Caliper EZ Reader to read the conversion rate. Inhibition rate %=(Average positive control conversion rate %−Sample conversion rate %/(Average positive control conversion rate %−Average negative control conversion rate %). Among them: negative control wells represent the conversion rate readings without enzyme activity; positive control wells represent the conversion rate readings of wells without compound inhibition. Take the log value of the concentration as the X-axis, and the percentage inhibition rate on the Y-axis. Log (inhibitor) vs. response—Variable slope of analysis software GraphPad Prism 5 was used to fit the curve to obtain the IC50 value of each compound on the enzyme activity. Calculation formula: Y=Bottom+(Top−Bottom)/(1+10^((Log IC50−X)*HillSlope)).

[1] = molecular target: T1, Ba/F3_EGFR del19/T790M/C797S cells (Homo sapiens, UniProt P00533, T790M/C797S, cells depend on it, form not given); test: Ba/F3_EGFR (del19-T790M-C797S) cell proliferation inhibition, CTG, method 1; type: cell-based; settings: 700 cells/well, 72 h, read-out: Ba/F3_EGFR (del19-T790M-C797S) cell proliferation inhibition (IC50 value) Method 1
T1 sequence (P00533 with tags, fused parts or gaps DEL746-750/T790M/C797S, form open): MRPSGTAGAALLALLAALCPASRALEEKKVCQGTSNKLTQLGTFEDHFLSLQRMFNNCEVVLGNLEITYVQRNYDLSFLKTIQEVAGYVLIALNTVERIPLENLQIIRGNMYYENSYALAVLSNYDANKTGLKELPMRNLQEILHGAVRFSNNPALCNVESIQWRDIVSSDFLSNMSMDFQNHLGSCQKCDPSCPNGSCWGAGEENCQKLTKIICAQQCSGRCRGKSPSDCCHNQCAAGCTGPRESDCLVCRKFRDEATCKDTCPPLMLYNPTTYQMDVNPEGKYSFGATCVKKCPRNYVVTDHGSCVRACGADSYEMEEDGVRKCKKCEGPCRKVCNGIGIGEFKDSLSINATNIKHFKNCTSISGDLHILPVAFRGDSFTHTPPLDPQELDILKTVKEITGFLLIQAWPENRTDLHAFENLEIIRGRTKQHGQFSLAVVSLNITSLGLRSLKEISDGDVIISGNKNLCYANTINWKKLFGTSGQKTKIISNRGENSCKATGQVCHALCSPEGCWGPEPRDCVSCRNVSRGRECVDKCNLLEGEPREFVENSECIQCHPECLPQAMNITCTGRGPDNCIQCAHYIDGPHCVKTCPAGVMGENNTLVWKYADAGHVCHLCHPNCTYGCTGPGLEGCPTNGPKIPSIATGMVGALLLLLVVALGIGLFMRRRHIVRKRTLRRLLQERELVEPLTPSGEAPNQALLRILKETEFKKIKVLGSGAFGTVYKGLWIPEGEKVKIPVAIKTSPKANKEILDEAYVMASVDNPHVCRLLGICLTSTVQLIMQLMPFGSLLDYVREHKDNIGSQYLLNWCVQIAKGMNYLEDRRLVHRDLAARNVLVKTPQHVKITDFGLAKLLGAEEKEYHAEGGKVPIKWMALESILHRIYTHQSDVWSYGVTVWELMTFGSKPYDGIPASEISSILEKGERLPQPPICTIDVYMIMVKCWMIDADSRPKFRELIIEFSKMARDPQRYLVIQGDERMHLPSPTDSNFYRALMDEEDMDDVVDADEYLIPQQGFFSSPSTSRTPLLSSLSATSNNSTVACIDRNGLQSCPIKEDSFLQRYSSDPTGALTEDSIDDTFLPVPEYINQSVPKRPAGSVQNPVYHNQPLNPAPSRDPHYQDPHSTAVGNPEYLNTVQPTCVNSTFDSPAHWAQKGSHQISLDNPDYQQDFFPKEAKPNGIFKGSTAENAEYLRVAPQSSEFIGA

[2] = molecular target: T1, Ba/F3_EGFR del19/T790M/C797S cells; test: Ba/F3_EGFR (del19-T790M-C797S) cell proliferation inhibition, CTG, method 2; type: cell-based; settings: 2000 cells/well, 72 h, read-out: Ba/F3_EGFR (del19-T790M-C797S) cell proliferation inhibition (IC50 value) Method 2
Description: Take a small amount of cells and count them with ViCell. 2) Adjust the cell density, inoculate the cells in a 384-well plate at 2000/well, and incubate in a 37° C., 5% CO2 incubator for 4 hours. 3) Set up the program of Tecan HP D300, add the compound to the well plate. The maximum initial concentration of the compound is 1-4 μM, 3 folds dilution, 9 concentrations, and the DMSO content in each well is unified to 0.2%.
CTG method detection: 1) Take out the CTG reagent and cell plate and equilibrate at room temperature for 30 min, add 25 μL CTG to each well, shake at medium speed for 2 min, centrifuge at 1000 rpm for 1 minutes, and stand still at room temperature for 10 minutes. 2) Envision instrument reads the chemiluminescence signal value.
Data analysis: IC50 results are analyzed by IDBS's XL-fit 5.0 software.

Sequence of MAP4K1 (HPK1) (Q92918 whole entry): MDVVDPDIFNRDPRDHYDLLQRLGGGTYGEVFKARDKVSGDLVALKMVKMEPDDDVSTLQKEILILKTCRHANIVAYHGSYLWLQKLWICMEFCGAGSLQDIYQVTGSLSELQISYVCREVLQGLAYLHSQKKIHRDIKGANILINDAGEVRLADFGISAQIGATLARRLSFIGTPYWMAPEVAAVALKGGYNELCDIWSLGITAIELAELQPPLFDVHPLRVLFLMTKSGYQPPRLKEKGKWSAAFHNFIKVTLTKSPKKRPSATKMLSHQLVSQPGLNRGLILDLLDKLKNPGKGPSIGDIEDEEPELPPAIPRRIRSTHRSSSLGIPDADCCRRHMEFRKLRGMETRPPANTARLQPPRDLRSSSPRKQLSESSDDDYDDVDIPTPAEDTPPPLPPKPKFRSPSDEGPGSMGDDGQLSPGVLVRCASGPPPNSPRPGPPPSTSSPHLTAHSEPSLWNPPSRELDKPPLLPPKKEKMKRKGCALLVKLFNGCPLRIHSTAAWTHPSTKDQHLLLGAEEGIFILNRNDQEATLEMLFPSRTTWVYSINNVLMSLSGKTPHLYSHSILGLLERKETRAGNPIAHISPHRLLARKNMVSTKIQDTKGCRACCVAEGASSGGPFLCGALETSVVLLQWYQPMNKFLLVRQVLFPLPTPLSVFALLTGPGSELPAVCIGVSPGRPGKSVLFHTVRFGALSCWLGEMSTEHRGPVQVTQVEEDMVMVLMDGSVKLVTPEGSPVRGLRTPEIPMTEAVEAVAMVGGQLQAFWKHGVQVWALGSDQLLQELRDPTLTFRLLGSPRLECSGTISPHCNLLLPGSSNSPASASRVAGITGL

Cc1cc(Nc2ncc(Cl)c(Nc3ccccc3P(C)(C)=O)n2)cc2c1N1CCN(C3CCN(C)CC3)C[C@@H]1CO2 [Compound 27R]
IC50 (MAP4K1 (HPK1)): ≤ 0.001 µM | IC50 (EGFR (T790M/L858R/C797S)): < 0.003 µM | GI50 [1]: < 0.02 µM | GI50 [2]: < 0.02 µM
